For orientation: IC50 means the concentration at which inhibition is half-maximal. As a reminder, the Km is the concentration of substrate that gives half-maximal velocity.

This note sets out measurements from article PMC8286831, “Identifying SARS-CoV-2 antiviral compounds by screening for small molecule inhibitors of nsp13 helicase” (Biochemical Journal, 2021).

Entries after “also recorded” stand apart in the source; their conditions may differ. Counter-ions that a name gives are not always drawn. Like-named read-outs stand apart in the source and are kept apart here.

The target of assay [1] is SARS-CoV-2 nsp13 helicase (Severe acute respiratory syndrome coronavirus 2, UniProt P0DTD1). Nature of the assay: biochemical. Type of assay: biochemical. Conditions: for nsp13 inhibition and detergent sensitivity: presence or absence of non-ionic detergent.
Assay [2] addresses T1, SARS-CoV-2 RdRp holoenzyme (Severe acute respiratory syndrome coronavirus 2, UniProt P0DTD1).
T1 construct: (Sf nsp12-3F/7L8 preincubated with Sf 7H8 at a 1:3 ratio); 3F (3xFlag) (C); made in house; host or cells: 'Sf', read as Spodoptera frugiperda insect cells (my inference from the prefix); details are in Bertolin et al
Nature of the assay: FRET-based RdRp strand displacement assay. Type of assay: biochemical.

Setting [3] is: RNA (RdRp substrate), 0.3 mM each NTP, 0.02% Tween-20 in RdRp assay buffer.
[4] abbreviates: read-out: IC50 + 0.02% Tween-20.
[5] abbreviates: RNA (nsp13 substrate), 0.3 mM ATP, 0.02% Tween-20 in RdRp assay buffer.
Setting [6] is: IC50 0.02% Tween-20 + (presence).
The mark [7] stands for this setting: IC50 0.02% Tween-20 − (absence).
Where [8] appears, read: RNA (nsp13 substrate), 0.3 mM ATP, 0.02% Tween-20 in RdRp assay buffer, read-out: IC50 nsp13.
Setting [9] is: RNA (RdRp substrate), 0.3 mM each NTP, 0.02% Tween-20 in RdRp assay buffer, read-out: IC50 RdRp.

Turning to `NC(Cc1cc(O)c(O)cc1O)C(=O)O` (racemic) [6-Hydroxy-DL-DOPA], in assay [1], the “IC50 + 0.02% Tween-20” value is on record as “Quenching” and the “IC50 No detergent” value is “Quenching”.

Turning to `CN(C)CC[C@H](CSc1ccccc1)Nc1ccc(S(=O)(=O)NC(=O)c2ccc(N3CCC(C)(C)CC3)cc2)cc1[N+](=O)[O-]` [A-385358], the “IC50 RdRp” value in assay [2] (setting [3]) is recorded as “did not inhibit RdRp; also recorded: No inhibition”. Further, the “IC50 nsp13” value in assay [1] is reported as “No inhibition”. Besides, the IC50 is more than 250 µM in assay [1] (setting [4]) and 3.3 µM in assay [1] (read-out: IC50 No detergent).

Regarding `CN(C)CC[C@H](CSc1ccccc1)Nc1ccc(S(=O)(=O)NC(=O)c2ccc(N3CCN(Cc4ccccc4-c4ccc(Cl)cc4)CC3)cc2)cc1[N+](=O)[O-]` [ABT-737], in assay [2] (setting [3]), the “IC50 RdRp” value was “No inhibition”. The results for the IC50 in assay [1] (IC50 + 0.02% Tween-20) and in assay [1] (IC50 No detergent) were more than 250 µM and 1.2 µM, respectively. In assay [1] (setting [5]), the “IC50 nsp13” value is “No inhibition”.

Consider `CCN(CC)C(=O)c1ccc(C2=CC3(CCNCC3)Oc3cccc(O)c32)cc1` [ADL5859], for which the “IC50 + 0.02% Tween-20” value in assay [1] is given as “No inhibition”. The same compound registered an IC50 in assay [1] (IC50 No detergent) of more than 250 µM.

`Nc1ncnc2c1ncn2[C@@H]1O[C@H](COP(=O)(O)OP(=O)(O)OP(=O)(O)O)[C@@H](O)[C@H]1O` [ATP]: the Km in assay [1] (2 nM FH-nsp13, 200 nM DNA substrate, read-out: Km for ATP with the DNA substrate) was determined as 110 µM; in assay [1] (3 nM FH-nsp13, 200 nM RNA substrate, read-out: Km for ATP with the RNA substrate), 130 µM.

For `COc1ccc(-c2ccc3cc(C(=O)O)ccc3c2)cc1C12CC3CC(CC(C3)C1)C2` [Adapalene], the IC50 turned out to be 20 µM in assay [2]; 5.5 µM in assay [1] (setting [6]); 1.3 µM in assay [1] (setting [7]); 9.9 µM in assay [1] (IC50 + 0.02% Tween-20); 3.7 µM in assay [1] (IC50 No detergent); 11 µM in assay [1] (IC50 nsp13).

On to `Cc1cc(O[C@@H](CCC(F)(F)F)c2ccc(C(=O)NCCC(=O)O)cc2)cc(C)c1-c1ccc(C(C)(C)C)cc1` [Adomeglivant], for which the IC50 is 39 µM in assay [2], 103 µM in assay [1] (IC50 + 0.02% Tween-20), 5.3 µM in assay [1] (IC50 No detergent) and more than 100 µM in assay [1] (setting [8]).

Turning to `CC(C)c1cc(C(C)C)c(CC(=O)NS(=O)(=O)Oc2c(C(C)C)cccc2C(C)C)c(C(C)C)c1` [Avasimibe], the IC50 turned out to be 18 µM in assay [2]; 17 µM in assay [1] (setting [6]); 1.3 µM in assay [1] (setting [7]); 13 µM in assay [1] (IC50 + 0.02% Tween-20); 4 µM in assay [1] (IC50 No detergent). The “IC50 RdRp” value in assay [2] (setting [3]) is “also inhibited RdRp in a similar fashion”.

`O=C1/C(=C/c2ccc(O)c(Br)c2)CN(Cc2ccccc2)C/C1=C\c1ccc(O)c(Br)c1` [CARM1-IN-1]: the IC50 was more than 100 µM in assay [2] (setting [9]), more than 100 µM in assay [1] (setting [8]), 126 µM in assay [1] (setting [4]) and 4.2 µM in assay [1] (read-out: IC50 No detergent).

On to `CO/N=C(\C(=O)N[C@@H]1C(=O)N2C(C(=O)O)=C(CSC(=O)c3ccco3)CS[C@H]12)c1csc(N)n1` [Ceftiofur HCl], for which the IC50 in assay [1] (IC50 + 0.02% Tween-20) and in assay [1] (IC50 No detergent) was more than 250 µM throughout.

With `CC(C)(C[C@H]1CN(S(=O)(=O)c2cccc(C(F)(F)F)c2)c2cc(-c3cc(F)cc(OC(F)F)c3)ccc2O1)C(=O)O` [Cintirorgon], the half-inhibitory concentration (IC50) stood at 36 µM in assay [2] (setting [9]); 41 µM in assay [1] (setting [6]); 2.1 µM in assay [1] (setting [7]); 38 µM in assay [1] (IC50 + 0.02% Tween-20); 2.3 µM in assay [1] (IC50 No detergent); 97 µM in assay [1] (setting [8]).

Turning to `COc1cccc2c1C(=O)c1c(O)c3c(c(O)c1C2=O)C[C@@](O)(C(=O)CO)C[C@@H]3O[C@H]1C[C@H](N)[C@H](O)[C@H](C)O1` [Doxorubicin], in assay [1], the “IC50 + 0.02% Tween-20” value is reported as “Artifact” and the “IC50 No detergent” value is recorded as “Artifact”.

For the compound `CC/C=C\C/C=C\C/C=C\C/C=C\C/C=C\CCCC(=O)O` [Eicosapentaenoic acid], the IC50 in assay [2] (setting [9]) was determined as 29 µM; in assay [1] (IC50 + 0.02% Tween-20), 69 µM; in assay [1] (IC50 No detergent), 14 µM; in assay [1] (setting [8]), 81 µM.

Regarding `CCCCCCCC/C=C/CCCCCCCC(=O)O` [Elaidic acid], the “IC50 RdRp” value in assay [2] (setting [3]) was “No inhibition”. For the same compound, the IC50 in assay [1] (IC50 + 0.02% Tween-20) is more than 250 µM; in assay [1] (IC50 No detergent), 8.6 µM. In assay [1] (setting [5]), the “IC50 nsp13” value is on record as “No inhibition”.

With `COc1cc2c(cc1Cc1cccc(Cl)c1F)c(=O)c(C(=O)O)cn2[C@H](CO)C(C)C` [Elvitegravir], the IC50 in assay [1] (IC50 + 0.02% Tween-20) was more than 250 µM; in assay [1] (IC50 No detergent), 22 µM. Moreover, the “nsp13 inhibition and detergent sensitivity” value in assay [1] is reported as “clear inhibition only in the absence of detergent”.

As to `COC(=O)[C@@H]1CC2=CC(=O)CC[C@]2(C)[C@@]23O[C@@H]2C[C@@]2(C)[C@@H](CC[C@@]24CCC(=O)O4)[C@H]13` [Eplerenone], the “IC50 + 0.02% Tween-20” value in assay [1] was “No inhibition”. For the same compound, the IC50 in assay [1] (IC50 No detergent) was more than 250 µM.

On to `CC1=C(/C=C/C(C)=C/C=C/C(C)=C/C(=O)Nc2ccc(O)cc2)C(C)(C)CCC1` [Fenretinide], for which, in assay [2] (setting [3]), the “IC50 RdRp” value is reported as “No inhibition”. Moreover, the IC50 was more than 250 µM in assay [1] (setting [6]), 7.3 µM in assay [1] (setting [7]), more than 250 µM in assay [1] (IC50 + 0.02% Tween-20) and 9.1 µM in assay [1] (IC50 No detergent). For the same compound, the “IC50 nsp13” value in assay [1] (setting [5]) is on record as “No inhibition”.

On to `CC1(C)O[C@@H]2C[C@H]3[C@@H]4C[C@H](F)C5=CC(=O)C=C[C@]5(C)[C@@]4(F)[C@@H](O)C[C@]3(C)[C@]2(C(=O)CO)O1` [Fluocinolone Acetonide], for which the “IC50 + 0.02% Tween-20” value in assay [1] is reported as “No inhibition”. Moreover, the IC50 in assay [1] (IC50 No detergent) was more than 250 µM.

For `CC(C)(Sc1ccc(CCN(CCCCC2CCCCC2)C(=O)NC2CCCCC2)cc1)C(=O)O` [GW7647], the IC50 came to 32 µM in assay [2] (setting [9]); 25 µM in assay [1] (setting [6]); 2.3 µM in assay [1] (setting [7]); 27 µM in assay [1] (IC50 + 0.02% Tween-20); 5.9 µM in assay [1] (IC50 No detergent); 39 µM in assay [1] (setting [8]).

As for `Cc1cc2c(C(C)C)c(O)c(O)c(C=O)c2c(O)c1-c1c(C)cc2c(C(C)C)c(O)c(O)c(C=O)c2c1O` [Gossypol], the IC50 in assay [2] amounted to 17 µM; in assay [1] (setting [6]) it was 31 µM; in assay [1] (setting [7]), 1.3 µM; in assay [1] (IC50 + 0.02% Tween-20), 30 µM; in assay [1] (IC50 No detergent), 1.9 µM; in assay [1] (setting [8]), 26 µM.

Regarding `COc1c2c3c4c(c(OC)c(=O)c5c(O)cc(OC)c(c6c(OC)cc(O)c(c1=O)c63)c54)[C@@H](C(C)=O)[C@@](C)(O)C2` [Hypocrellin A], the IC50 in assay [1] (IC50 + 0.02% Tween-20) is more than 250 µM; in assay [1] (IC50 No detergent), 12 µM. In addition, in assay [1], the “nsp13 inhibition and detergent sensitivity” value is “clear inhibition only in the absence of detergent”.

Regarding `CS(=O)(=O)c1cccc(C[C@H](NC(=O)c2c(Cl)cc3c(c2Cl)CCN(C(=O)c2ccc4ccoc4c2)C3)C(=O)O)c1` [Lifitegrast], in assay [1], the “IC50 + 0.02% Tween-20” value is reported as “No inhibition” and the “IC50 No detergent” value is recorded as “No inhibition”.

Turning to `O=C1c2c(O)ccc(O)c2C(=O)c2c(NCCNCCO)ccc(NCCNCCO)c21` [Mitoxantrone], in assay [1], the “IC50 + 0.02% Tween-20” value is listed as “Quenching” and the “IC50 No detergent” value is listed as “Quenching”.

`CCCc1c2oc(C(=O)O)cc(=O)c2cc2c(=O)cc(C(=O)O)n(CC)c12` [Nedocromil]: in assay [1], the “IC50 + 0.02% Tween-20” value is given as “No inhibition” and the “IC50 No detergent” value is given as “No inhibition”.

Consider `O=C(N[C@H]1CCS[C@H]2CCC[C@@H](C(=O)O)N2C1=O)[C@@H](S)Cc1ccccc1` [Omapatrilat], for which the “IC50 + 0.02% Tween-20” value in assay [1] is given as “No inhibition”. Moreover, in assay [1] (IC50 No detergent), the IC50 is more than 250 µM.

In the case of `CN1Cc2sccc2C(c2ccc(O)c(O)c2)C1` (stereo not drawn) [SKF 89145], in assay [1], the “IC50 + 0.02% Tween-20” value is reported as “No inhibition” and the “IC50 No detergent” value is listed as “No inhibition”.

Turning to `Cc1cc(OCCCS(C)(=O)=O)cc(C)c1-c1cccc(COc2ccc3c(c2)OC[C@H]3CC(=O)O)c1` [TAK875, Fasiglifam], the IC50 is 72 µM in assay [1] (IC50 + 0.02% Tween-20) and 19 µM in assay [1] (IC50 No detergent). The “nsp13 inhibition and detergent sensitivity” value in assay [1] is recorded as “clear inhibition only in the absence of detergent”.
